Patent US20110313164A1, “LITHIUM DERIVATIVES OF PYRROLOQUINOLINE QUINONE AND PREPARATION METHOD THEREOF” (priority 2009, published 2011)

Test system: APP/PSI transgenic mice
Assay: cognitive ability of APP/PSI transgenic mice (FIG. 1)
Format: in vivo
Settings: intragastric administration, 20-week-old mice, 1.5 and 6 mg/kg of weight
Description: Intragastric administration is applied to 20-week-old mice. Wiletype is a wiletype control group; Ctrl is a transgenic control group; DNP is a […] group (1.5 mg/kg of weight); PQQLi 1.5 is a lithium pyrroloquinoline-quinone salt group (1.5 mg/kg of weight); PQQLi 6 is a lithium pyrroloquinoline-quinone group (6 mg/kg of weight). *p<0.05; ** p<0.005; NS: […].

O=C(O)c1cc(C(=O)O)c2c(n1)C(=O)C(=O)c1cc(C(=O)[O-])[nH]c1-2.[Li+] [PQQLi, 4,5-dihydroxy-1H-pyrrole[2,3-f]chinoline-2,7,9-tricarboxylic acid, lithium salt]
cognitive ability: promotes the cognitive ability
